Source: patent publication US4110327A, “2,3 Diketo-piperazinocarbonylamino alkanoic acids and derivatives” (Toyama Chemical Co., Ltd., priority 1974, dated 1978)
Converted amounts (≈) assume the structure as drawn.

What was measured:
Format in all cases: cell-based
Escherichia coli = test: MIC against clinical isolates; details: unit assumed
[1] = system: Pseudomonas aeruginosa I.F.O.; test: MIC against standard strain, plate method; details: unit assumed
In short: (§1)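 Minimum inhibitory concentrations were determined on agar plates of heart infusion medium (pH 7.4) inoculated with 10^4 cells per plate.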

Escherichia coli NIHJ = test: MIC against standard strain, plate method; details: unit assumed
In short: as §1

Klebsiella pneumoniae [2] = test: MIC against standard strain, plate method; details: unit assumed
In short: as §1

Proteus vulgaris 3027 = test: MIC against standard strain, plate method; details: Proteus vulgaris 3027, standard strain; unit assumed
In short: as §1

[3] = system: Staphylococcus aureus 209p; test: MIC against standard strain, plate method; details: unit assumed
In short: as §1

Klebsiella pneumoniae [4] = test: MIC against clinical isolates; details: unit assumed
Proteus mirabilis = test: MIC against clinical isolates; details: clinical isolate, unit assumed
Proteus vulgaris = test: MIC against clinical isolates; details: clinical isolate, unit assumed
Pseudomonas aeruginosa = test: MIC against clinical isolates; details: unit assumed
Staphylococcus aureus = test: MIC against clinical isolates; details: unit assumed
Proteus rettgeri = test: MIC against clinical isolates; details: clinical isolate, unit assumed
Proteus morganii = test: MIC against clinical isolates; details: clinical isolate, unit assumed

SMILES: CC(=O)OCC1=C(C(=O)O)N2C(=O)[C@@H](NC(=O)[C@H](N)c3ccccc3)[C@H]2SC1 [Sodium Cephaloglycin, SodiumCephaloglycin, reference compound]
- MIC (Escherichia coli; clinical isolate GN 3435): 1.56 µg/mL
- MIC (Escherichia coli; clinical isolate GN 3452): 3.13 µg/mL
- MIC (Escherichia coli; clinical isolate GN 3465): 12.5 µg/mL
- MIC (Escherichia coli; clinical isolate GN 3481): 3.13 µg/mL
- MIC (Escherichia coli; clinical isolate GN 3611): 25 µg/mL
- MIC (Escherichia coli; clinical isolate K-1): 1.56 µg/mL
- MIC (Escherichia coli; clinical isolate K-2): 1.56 µg/mL
- MIC (Escherichia coli; clinical isolate K-3): 25 µg/mL
- MIC (Escherichia coli; clinical isolate K-4): 12.5 µg/mL
- MIC [1]: > 200 µg/mL
- MIC (Escherichia coli NIHJ): < 1.57 µg/mL
- MIC (Klebsiella pneumoniae [2]): 100 µg/mL
- MIC (Proteus vulgaris 3027): < 1.57 µg/mL
- MIC [3]: < 1.57 µg/mL
- MIC (Klebsiella pneumoniae [4]; clinical isolate GN 917): 1.56 µg/mL
- MIC (Klebsiella pneumoniae [4]; clinical isolate GN 4081): 3.13 µg/mL
- MIC (Klebsiella pneumoniae [4]; clinical isolate GN 4117): 3.13 µg/mL
- MIC (Proteus mirabilis): 3.13 µg/mL
- MIC (Proteus vulgaris): 50 µg/mL
- MIC (Pseudomonas aeruginosa; clinical isolate GN 82): > 200 µg/mL
- MIC (Pseudomonas aeruginosa; clinical isolate GN 163): > 200 µg/mL
- MIC (Pseudomonas aeruginosa; clinical isolate GN 221): > 200 µg/mL
- MIC (Pseudomonas aeruginosa; clinical isolate GN 244): > 200 µg/mL
- MIC (Pseudomonas aeruginosa; clinical isolate GN 376): > 200 µg/mL
- MIC (Pseudomonas aeruginosa; clinical isolate GN 383): > 200 µg/mL
- MIC (Pseudomonas aeruginosa; clinical isolate GN 1035): > 200 µg/mL
- MIC (Pseudomonas aeruginosa; clinical isolate GN 1091): > 200 µg/mL
- MIC (Pseudomonas aeruginosa; clinical isolate GN 2565): > 200 µg/mL
- MIC (Pseudomonas aeruginosa; clinical isolate GN 2987): > 200 µg/mL
- MIC (Pseudomonas aeruginosa; clinical isolate S-1): > 200 µg/mL
- MIC (Pseudomonas aeruginosa; clinical isolate S-2): > 200 µg/mL
- MIC (Pseudomonas aeruginosa; clinical isolate S-3): > 200 µg/mL
- MIC (Pseudomonas aeruginosa; clinical isolate S-4): > 200 µg/mL
- MIC (Staphylococcus aureus; clinical isolate F-1): 3.13 µg/mL
- MIC (Staphylococcus aureus; clinical isolate F-2): 1.56 µg/mL
- MIC (Staphylococcus aureus; clinical isolate F-3): 1.56 µg/mL
- MIC (Staphylococcus aureus; clinical isolate F-4): 3.13 µg/mL
- MIC (Staphylococcus aureus; clinical isolate F-5): 25 µg/mL
- MIC (Staphylococcus aureus; clinical isolate MS 8588): 3.13 µg/mL
- MIC (Staphylococcus aureus; clinical isolate MS 8596): 1.56 µg/mL
- MIC (Staphylococcus aureus; clinical isolate MS 8619): 1.56 µg/mL
- MIC (Staphylococcus aureus; clinical isolate MS 8684): 1.56 µg/mL
- MIC (Staphylococcus aureus; clinical isolate MS 8713): 3.13 µg/mL
- MIC (Proteus rettgeri): 50 µg/mL
- MIC (Proteus morganii): 1.56 µg/mL

SMILES: CCN1CCN(C(=O)NC(C(=O)NC2C(=O)N3C(C(=O)O)=C(COC(C)=O)CSC23)c2ccccc2)C(=O)C1=O (stereo not drawn) [compound 61]
- MIC (Escherichia coli; clinical isolate GN 3435): 3.13 µg/mL (≈ 5.46 µM)
- MIC (Escherichia coli; clinical isolate GN 3452): 6.25 µg/mL (≈ 10.9 µM)
- MIC (Escherichia coli; clinical isolate GN 3465): 50 µg/mL (≈ 87.2 µM)
- MIC (Escherichia coli; clinical isolate GN 3481): 3.13 µg/mL (≈ 5.46 µM)
- MIC (Escherichia coli; clinical isolate GN 3611): 200 µg/mL (≈ 349 µM)
- MIC (Escherichia coli; clinical isolate K-1): 3.13 µg/mL (≈ 5.46 µM)
- MIC (Escherichia coli; clinical isolate K-2): 6.25 µg/mL (≈ 10.9 µM)
- MIC (Escherichia coli; clinical isolate K-3): 100 µg/mL (≈ 174 µM)
- MIC (Escherichia coli; clinical isolate K-4): 6.25 µg/mL (≈ 10.9 µM)
- MIC [1]: 25 µg/mL (≈ 43.6 µM)
- MIC (Escherichia coli NIHJ): < 0.79 µg/mL
- MIC (Klebsiella pneumoniae [2]): 3.13 µg/mL (≈ 5.46 µM)
- MIC (Proteus vulgaris 3027): 3.13 µg/mL (≈ 5.46 µM)
- MIC [3]: < 0.79 µg/mL
- MIC (Klebsiella pneumoniae [4]; clinical isolate GN 917): 6.25 µg/mL (≈ 10.9 µM)
- MIC (Klebsiella pneumoniae [4]; clinical isolate GN 4081): 12.5 µg/mL (≈ 21.8 µM)
- MIC (Klebsiella pneumoniae [4]; clinical isolate GN 4117): 12.5 µg/mL (≈ 21.8 µM)
- MIC (Proteus mirabilis): 1.56 µg/mL (≈ 2.72 µM)
- MIC (Proteus vulgaris): 0.8 µg/mL (≈ 1.39 µM)
- MIC (Pseudomonas aeruginosa; clinical isolate GN 82): 25 µg/mL (≈ 43.6 µM)
- MIC (Pseudomonas aeruginosa; clinical isolate GN 163): 25 µg/mL (≈ 43.6 µM)
- MIC (Pseudomonas aeruginosa; clinical isolate GN 221): 6.25 µg/mL (≈ 10.9 µM)
- MIC (Pseudomonas aeruginosa; clinical isolate GN 244): 25 µg/mL (≈ 43.6 µM)
- MIC (Pseudomonas aeruginosa; clinical isolate GN 376): 12.5 µg/mL (≈ 21.8 µM)
- MIC (Pseudomonas aeruginosa; clinical isolate GN 383): 12.5 µg/mL (≈ 21.8 µM)
- MIC (Pseudomonas aeruginosa; clinical isolate GN 1035): 100 µg/mL (≈ 174 µM)
- MIC (Pseudomonas aeruginosa; clinical isolate GN 1091): 25 µg/mL (≈ 43.6 µM)
- MIC (Pseudomonas aeruginosa; clinical isolate GN 2565): 50 µg/mL (≈ 87.2 µM)
- MIC (Pseudomonas aeruginosa; clinical isolate GN 2987): 25 µg/mL (≈ 43.6 µM)
- MIC (Pseudomonas aeruginosa; clinical isolate S-1): 50 µg/mL (≈ 87.2 µM)
- MIC (Pseudomonas aeruginosa; clinical isolate S-2): 50 µg/mL (≈ 87.2 µM)
- MIC (Pseudomonas aeruginosa; clinical isolate S-3): 50 µg/mL (≈ 87.2 µM)
- MIC (Pseudomonas aeruginosa; clinical isolate S-4): 50 µg/mL (≈ 87.2 µM)
- MIC (Staphylococcus aureus; clinical isolate F-1): 3.13 µg/mL (≈ 5.46 µM)
- MIC (Staphylococcus aureus; clinical isolate F-2): 1.56 µg/mL (≈ 2.72 µM)
- MIC (Staphylococcus aureus; clinical isolate F-3): 1.56 µg/mL (≈ 2.72 µM)
- MIC (Staphylococcus aureus; clinical isolate F-4): 3.13 µg/mL (≈ 5.46 µM)
- MIC (Staphylococcus aureus; clinical isolate F-5): 50 µg/mL (≈ 87.2 µM)
- MIC (Staphylococcus aureus; clinical isolate MS 8588): 1.56 µg/mL (≈ 2.72 µM)
- MIC (Staphylococcus aureus; clinical isolate MS 8596): 1.56 µg/mL (≈ 2.72 µM)
- MIC (Staphylococcus aureus; clinical isolate MS 8619): 1.56 µg/mL (≈ 2.72 µM)
- MIC (Staphylococcus aureus; clinical isolate MS 8684): 1.56 µg/mL (≈ 2.72 µM)
- MIC (Staphylococcus aureus; clinical isolate MS 8713): 1.56 µg/mL (≈ 2.72 µM)
- MIC (Proteus rettgeri): 3.13 µg/mL (≈ 5.46 µM)
- MIC (Proteus morganii): 1.56 µg/mL (≈ 2.72 µM)
